Earlier results in patent US20140271704A1, “METHODS OF PRODUCING NUTRITIONAL SUPPLEMENTS USING MUSHROOMS FROM THE SPECIES Poria cocos OR Flammulina velutipes” (JARROW FORMULAS, INC., priority 2013, published 2014).

Assays:
[1] = system: homocysteine; conditions: human; compared with racemic mixtures of equal amounts of L- and D-isomer
[2] = oral, animal

## CN1c2c(nc(N)[nH]c2=O)NCC1CNc1ccc(C(=O)N[C@@H](CCC(=O)O)C(=O)O)cc1 (single isomer, unassigned) [L-isomer of 5-MTHF, 5-methyltetrahydrofolate]
[1]
  reduction of homocysteine versus racemic mixture: superior to racemic mixtures

## CN1c2c(nc(N)[nH]c2=O)NCC1CNc1ccc(C(=O)N[C@@H](CCC(=O)O)C(=O)O)cc1 (some centres unmarked) [5-MTHF, 5-methyltetrahydrofolate]
[2]
  absorption from the intestinal tract: readily absorbed from the intestinal tract without degradation
